Measured values reported in article PMC9399069, “Imaging PARP with [^18F]rucaparib in pancreatic cancer models” (European Journal of Nuclear Medicine and Molecular Imaging, 2022).

Key:
Format in all cases: cell-based, human
[1] = system: PSN1 cells; experiment: In vitro uptake and binding selectivity of [18F]rucaparib in PSN1 cells; conditions: PSN1 cells, unlabelled inhibitor 100 μM for 45 min before [18F]rucaparib (100 nM), further 45 min
Description: (§1) AsPC1 (1 × 10^5 cells/well) and PSN1 cells (7.5 × 10^4 cells/well) were seeded separately in 24-well plates (in 300 μL growth medium) and allowed to adhere for at least 20 h. […] To assess [^18F]rucaparib-binding selectivity, unlabelled PARP inhibitors, IMPDH2 or ALDH2 inhibitor, were added (100 μM, in 270 μL growth medium) for 45 min at 37 °C before addition of [^18F]rucaparib (156 kBq, 6.8 GBq/μmol; [^TotalF]rucaparib final concentration: 100 nM), and the cells were incubated at 37 °C for a further 45 min. Cell culture medium was removed, and cells were washed with PBS. Cells were lysed using RIPA buffer for 15 min at room temperature, and the amount of ^18F in the cell lysates was measured using an automated gamma counter (PerkinElmer), normalising for the number of cells.
(§2) Cells were lysed and the amount of ^18F in the cell lysates was measured as above.

[2] = system: AsPC1 cells; experiment: In vitro uptake and binding selectivity of [18F]rucaparib in AsPC1 cells; conditions: unlabelled inhibitor 100 μM for 45 min before [18F]rucaparib (100 nM), further 45 min
Description: as §1, §2

[3] = system: AsPC1 cells; experiment: Protein expression by flow cytometry after PARP inhibitors or DNA-damaging reagents, AsPC1 cells; conditions: 10 μM, 3 h, flow cytometry
Description: (§3) Relative expression of PARP1, 2 and 3, ALDH2 and IMPDH2 was determined by flow cytometry. Cells (1 × 10^6 cells/well) were seeded in 96-well plates in growth medium, washed with FACS buffer (PBS, 2% FBS, 1 mM EDTA, 0.1% NaN3) and centrifuged at 500×g for 5 min. Immunostaining was performed using the Foxp3/transcription factor staining buffer set (eBioscience^TM, USA). Intracellular staining was conducted in permeabilisation buffer for 30 min at 4 °C in the dark using the following antibodies: AF488-conjugated anti-PARP-1 (1:100; sc-80070), AF594-conjugated anti-PARP-2 (1:100; sc-393310), anti-PARP-3 (1:100; sc-390771) or anti-PARP-tankyrase-1/2 (1:100; sc-365897) from Santa Cruz Biotechnology Inc. (USA), AF488-conjugated anti-IMPDH2 (1:500; ab-200770) from Abcam plc. (UK) and AF488-conjugated anti-ALDH2 (1:100, ABIN6817568) from Antibodies-online GmbH (UK). Fixable viability dye ef780 (1:4000; eBioscience^TM; 65-0865-14) was used for live and dead cells discrimination. Fixation of immunostained cells was performed for 15 min at room temperature. Flow cytometry was conducted on the CytoFLEX benchtop flow cytometer (Beckman Coulter, USA), with appropriate lasers and filters, positive and negative controls. Data were analysed using FlowJo^TM (Tree Star Inc., BD Biosciences, USA).
(§4) AsPC1 (1 × 10^5 cells/well) and PSN1 cells (7.5 × 10^4 cells/well) were exposed to methyl methanesulfonate (MMS) or temozolomide (TMZ) (100 μM, in a total of 270 μL growth medium) for 3 h at 37 °C. Additionally, [^18F]rucaparib (500 kBq, 3.6 GBq/μmol; [^TotalF]rucaparib final concentration: 301 nM) or [^18F]olaparib (400 kBq, 8.5 GBq/μmol; [^TotalF]olaparib final concentration: 300 nM) was added, and the cells were incubated at 37 °C for 30 min. Cell culture medium was removed, and cells were washed with PBS. For cell retention, fresh medium (300 μL) was added to the cells. Cells were then further incubated at 37°C for 3 h. Cell culture medium was removed, and the amount of ^18F in the cell lysates was measured as above. Protein expression of the cells after DNA-damaging treatments (or PARP inhibitors 10 μM) was performed using flow cytometry as above.

[4] = system: PSN1 cells; experiment: Protein expression by flow cytometry after PARP inhibitors or DNA-damaging reagents, PSN1 cells; conditions: 10 μM, 3 h, flow cytometry
Description: as §3, §4

SMILES	Blocking of [18F]rucaparib uptake [1]	Blocking of [18F]rucaparib uptake [2]	PARP1 expression (MFI) after exposure of PARP inhibitors [3]	PARP1 expression (MFI) after exposure of PARP inhibitors [4]
O=c1c(-c2ccc(O)cc2)coc2cc(O[C@@H]3O[C@H](CO)[C@@H](O)[C@H](O)[C@H]3O)ccc12 [daidzin, reference compound]	significantly reduce	significantly reduce	–	–
Cn1ncnc1[C@H]1c2n[nH]c(=O)c3cc(F)cc(c23)N[C@@H]1c1ccc(F)cc1 [talazoparib]	–	–	upregulated	upregulated
